ChEMBL document CHEMBL1201862, “PubChem BioAssay data set” (2004)
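1) Cells in 96-well plates. 2) Compound, 48 h, 5 concentrations. 3) Linear interpolation between surrounding doses. 4) Unreached endpoint = highest concentration. Here, GI50 denotes the concentration required for 50% inhibition of growth.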 Calls of active or inactive are those of the source. Cut-off read from the data, not from the text of the source: active = GI50 up to about 1.1 µM and inactive = higher.

Key:
Test in all cases: growth of human tumour cells (NCI), 48 h
CAKI-1 = test system: CAKI-1
MDA-N = test system: MDA-N
DU-145 = test system: DU-145
SNB-78 = test system: SNB-78
RXF 631 = test system: RXF 631
LXFL 529 = test system: LXFL 529
XF498 = test system: XF498
DMS-114 = test system: DMS-114
HOP-18 = test system: HOP-18

Structure (SMILES)	GI50 (CAKI-1)	GI50 (MDA-N)	GI50 (DU-145)	GI50 (SNB-78)	GI50 (RXF 631)	GI50 (LXFL 529)	GI50 (XF498)	GI50 (DMS-114)	GI50 (HOP-18)
COC(=O)c1c(OC(C)=O)ccc2c1c1c(n2Cc2ccccc2)C(=O)c2ccccc2C1=O	22 µM (inactive)	18.7 µM (inactive)	17 µM (inactive)	–	–	–	–	–	–
CCOC(=O)[C@H]1Nc2c(cccc2[N+](=O)[O-])C2c3ccccc3CC21 (stereo partly drawn)	> 100 µM (inactive)	–	–	> 100 µM (inactive)	> 100 µM (inactive)	> 100 µM (inactive)	> 100 µM (inactive)	> 100 µM (inactive)	–
COc1ccc(-n2cnn3c(=O)c4cn[nH]c4nc23)cc1	–	–	> 10 µM (inactive)	–	–	–	–	–	–
Cc1sc(N)c(S(=O)(=O)c2ccccc2)c1C	> 100 µM (inactive)	–	> 100 µM (inactive)	–	–	–	–	–	–
Brc1ccc(/C(N=N/C(=N\Sc2ccccc2)c2ccc(Br)cc2)=N/Sc2ccccc2)cc1	> 100 µM (inactive)	> 100 µM (inactive)	> 100 µM (inactive)	–	–	–	–	–	–
Nc1nc(Cl)cc(NCCCCCCCCCCCCNc2cc(Cl)nc(N)n2)n1	–	–	–	–	–	0.769 µM (active)	0.386 µM (active)	–	> 100 µM (inactive)
CC1CNC(NS(=O)(=O)c2cc(C(=O)Nc3ccc(F)cc3)c(Cl)cc2S)=NN1 (stereo not drawn)	> 100 µM (inactive)	–	> 100 µM (inactive)	–	–	–	–	–	–
CCCC(=O)Nc1cc(/C=C/C(=O)N2CC(CCl)c3c2cc(OCc2ccccc2)c2[nH]cc(C)c32)n(C)c1 (stereo not drawn)	0.0295 µM (active)	0.249 µM (active)	0.0194 µM (active)	–	–	–	–	–	–
CC(C)NC(=O)OCc1c(COC(=O)NC(C)C)c(-c2cc[n+](COC(=O)Cc3ccccc3)cc2)n2c1CCC2	37.8 µM (inactive)	> 100 µM (inactive)	> 100 µM (inactive)	–	–	–	–	–	–
Cc1ccc2c3c4c(ccc13)C(C)(C)OC4=C(C(C)C)C2=O	> 100 µM (inactive)	> 100 µM (inactive)	> 100 µM (inactive)	–	–	–	–	–	–
CCN(CC)c1ccc2c(c1)Oc1ccc(N(C(C)=O)c3ccccc3)cc1C21OC(=O)c2ccccc21 (stereo not drawn)	> 100 µM (inactive)	32.6 µM (inactive)	> 100 µM (inactive)	–	–	–	–	–	–
CN(C)CCCCN1CCc2c(n(C)c3ccccc23)C1=O	29.6 µM (inactive)	19.3 µM (inactive)	–	–	–	–	–	–	–
COc1cc(N/N=C/C#N)cc(OC)c1OC	4.07 µM (inactive)	> 10 µM (inactive)	> 10 µM (inactive)	–	–	–	–	–	–
COC(=O)c1sc(=NC(=S)N2CCCCC2)sc1C(=O)OC	> 100 µM (inactive)	–	–	> 100 µM (inactive)	62.7 µM (inactive)	> 100 µM (inactive)	–	62.7 µM (inactive)	> 100 µM (inactive)
COC(=O)c1c(-c2ccccc2)c2sc3ccccc3n2c1N	51.3 µM (inactive)	50.4 µM (inactive)	57.5 µM (inactive)	–	–	–	–	–	–
C#Cc1c(C)c(/C=C/C(C)=C\C(=O)OC)n(C)c1C	> 100 µM (inactive)	–	–	> 100 µM (inactive)	–	94 µM (inactive)	> 100 µM (inactive)	19 µM (inactive)	> 100 µM (inactive)
CCOC(=O)c1ccc(N[C@@H]2c3cc4c(cc3C(c3cc(OC)c(O)c(OC)c3)[C@H]3C(=O)OCC32)OCO4)cc1O (stereo partly drawn)	0.331 µM (active)	–	–	1.77 µM (inactive)	–	–	1.3 µM (inactive)	0.56 µM (active)	2.25 µM (inactive)
COC1=CC(=O)c2ccccc2C1(C)C1=NC(C)(C)CO1 (stereo not drawn)	> 100 µM (inactive)	–	–	–	> 100 µM (inactive)	> 100 µM (inactive)	> 100 µM (inactive)	> 100 µM (inactive)	> 100 µM (inactive)
O=C(CCC(=O)Nc1ccccc1C(F)(F)F)N/N=C1\C(=N\NC(=O)CCC(=O)Nc2ccccc2C(F)(F)F)C(c2ccc3c(c2)OCO3)Oc2ccccc21 (stereo not drawn)	10.1 µM (inactive)	–	–	25.8 µM (inactive)	14 µM (inactive)	–	34.2 µM (inactive)	2.74 µM (inactive)	> 100 µM (inactive)
Nc1ccc2[nH]c3c(-c4ccccc4)nccc3c2c1	–	–	–	> 55 µM (inactive)	–	–	61.2 µM (inactive)	37.6 µM (inactive)	> 100 µM (inactive)
COC(O)C(=O)c1ccc2c(c1)CC1(C2)Cc2cc3c(cc2C1=O)CCC3 (stereo not drawn)	16.9 µM (inactive)	19.9 µM (inactive)	17.1 µM (inactive)	–	–	–	–	–	–
Nc1nc(N)c2c(Cl)c(CNc3ccc(Cl)c(Cl)c3)ccc2n1	–	< 0.01 µM (active)	0.15 µM (active)	7.19 µM (inactive)	–	< 0.0278 µM (active)	2.07 µM (inactive)	< 0.01 µM (active)	0.716 µM (active)
O=C1C2=C(c3ccccc31)C(c1ccc(Cl)cc1)NC(S)=N2 (stereo not drawn)	28.4 µM (inactive)	–	–	–	–	14.8 µM (inactive)	–	22.7 µM (inactive)	–
CC1C(O)C2(Oc3cc4c(c5c3[C@@H](CC5O)[C@H]2C)CCC2Cc3nc5c(nc3C[C@@]42C)CC2CCC3C4=C[C@H]6O[C@@]7(O[C@@](C)(CO)C[C@@H]7O)C(C)[C@@]6(O)[C@]4(C)[C@@H](O)CC3[C@]2(C)C5)OC1(C)C (stereo partly drawn)	0.148 µM (active)	–	–	0.0494 µM (active)	–	–	0.115 µM (active)	0.104 µM (active)	2.01 µM (inactive)
CCCCC(C)C1CCC2(C)C=CC(=O)C(C)=C2C1O (stereo not drawn)	> 100 µM (inactive)	–	–	> 100 µM (inactive)	–	–	> 100 µM (inactive)	> 100 µM (inactive)	> 100 µM (inactive)
Cc1ccc(-c2c(C#N)c(-c3ccc([N+](=O)[O-])cc3)c(C#N)c(=O)n2NS(=O)(=O)c2ccccc2)cc1	97.3 µM (inactive)	84.3 µM (inactive)	–	–	–	–	–	–	–
